From article PMC11476629, “Exploring a Potential Optimization Route for Peptide Ligands of the Sam Domain from the Lipid Phosphatase Ship2” (International Journal of Molecular Sciences, 2024)
Non-standard residues stand in square brackets, D forms with d. Residues, ends and D or L forms follow the SMILES beside them. βAla = NCCC(=O)O

Columns and labels:
[1] = test system: EphA2 levels in PC-3 cells; test: Western blot analysis of EphA2 levels; type: cell-based; settings: n = 3
Experimental: The levels of EphA2 were monitored in PC-3 cells through Western blot analysis to evaluate if the binding of the TAT-PSscan255 peptide to Ship2-Sam could avoid the inhibition of EphA2 endocytosis and degradation. For this purpose, PC-3 cells were treated with ephrinA1-Fc (1 µg/mL for 2 h) and TAT-PSscan255 (50 µM for 4 h), both alone and in combination (i.e., pre-treating with TAT-peptide 50 µM for 2 h followed by the addition of ephrinA1-Fc 1 µg/mL for an extra 2 h) (Figure 7b).
PC-3 cells were treated with TAT-PSscan255 (50 μM) for 4 h and ephrinA1-Fc (1 μg/mL) for 2 h, both alone and in combination. […] Lysates were centrifuged at 13,000 rpm for 30 min at 4 °C and the protein concentration in the supernatants was evaluated using the Bradford assay. […] Quantification was achieved through densitometric analysis with the ImageJ software (v.1.54g) (National Institutes of Health, Bethesda, MD, USA, https://imagej.org). Statistical significance regarding the comparison between treated and untreated cells was evaluated with one-way ANOVA using Dunnett’s post-test analysis. Statistical analysis was assessed with the OriginPro software v.2023 (OriginLab Corporation, Northampton, MA, USA).

[2] = test system: PC-3 cells; settings: 4 h, crystal violet
Experimental: (§1) Media and supplements were obtained from Thermo Fisher Scientific (Milan, Italy). PC-3 cells were cultured in the RPMI 1640 medium enriched with 10% fetal bovine serum (FBS) and 2 mM L-glutamine. NHDFs were cultured in the DMEM medium complemented with 2% FBS, 1 μg/mL hydrocortisone, 10 ng/mL human epidermal growth factor, 3 ng/mL basic fibroblast growth factor, and 10 μg/mL heparin. For the cytotoxicity assay 96-well flat-bottom microplates were used and 4 × 10^3 cancer cells and 5 × 10^3 NHDF cells were seeded in 50 μL of medium per well and incubated overnight to permit cell adhesion at 37 °C in a 5% CO2 humidified atmosphere. Following the removal of the culture medium, cells were incubated with 100 μL of their growth medium containing 50 and 100 μM TAT-PSscan255 for 4 h. TAT-PSscan255 was dissolved in water. The crystal violet assay was performed to assess cell viability. The amount of dye taken up was quantified with a plate reader (Multiskan Fc 10094, Thermo Fisher Scientific, Milan, Italy) at 595 nm. Data, reported as means ± SEM of three independent experiments carried out in quadruplicate, were presented as the percentage of proliferating cells compared to the control (vehicle-treated cells).

[3] = test system: normal human dermal fibroblasts (NHDFs); settings: NHDF, 50 and 100 µM, 4 h, crystal violet; three experiments in quadruplicate
Experimental: as §1

CC[C@H](C)[C@H](NC(=O)[C@H](CCCNC(=N)N)NC(=O)[C@H](CCCCN)NC(=O)[C@H](CC(N)=O)NC(=O)[C@H](C)NC(=O)[C@H](CC(C)C)NC(=O)[C@H](Cc1ccccc1)NC(=O)[C@H](CCCCN)NC(=O)[C@H](Cc1ccc(O)cc1)NC(=O)[C@H](Cc1c[nH]c2ccccc12)NC(=O)[C@H](CCC(=O)O)NC(=O)[C@H](CCCNC(=N)N)NC(=O)[C@H](CCCCN)NC(=O)CNC(=O)CNC(=O)[C@H](CCC(N)=O)NC(=O)[C@@H]1CCCN1C(=O)[C@@H]1CCCN1C(=O)[C@H](CCCNC(=N)N)NC(=O)[C@H](CCCNC(=N)N)NC(=O)[C@H](CCCNC(=N)N)NC(=O)[C@H](CCC(N)=O)NC(=O)[C@H](CCCNC(=N)N)NC(=O)[C@H](CCCNC(=N)N)NC(=O)[C@H](CCCCN)NC(=O)[C@H](CCCCN)NC(=O)[C@H](CCCNC(=N)N)NC(=O)CNC(=O)CCNC(C)=O)C(=O)N[C@@H](C)C(=O)N[C@@H](Cc1ccc(O)cc1)C(N)=O [TAT-PSscan255] (Ac-[βAla]GRKKRRQRRRPPQGGKREWYKFLANKRIAY-NH2)
EphA2 levels with respect to untreated control ([1]; PC-3, TAT-PSscan255 alone, 50 µM for 4 h): a certain decrease in EphA2 levels | EphA2 levels with respect to untreated control ([1]; PC-3, TAT-peptide 50 µM for 2 h, then ephrinA1-Fc 1 µg/mL added for an extra 2 h): a reduction in EphA2 levels like that observed for the ephrin ligand when used by itself | Cytotoxicity towards PC-3 compared with NHDFs ([2]; 50 and 100 µM): increased cytotoxicity towards PC-3 with respect to NHDFs | Cytotoxic effect (cell viability relative to untreated cells) ([2]; PC-3, 50 and 100 µM, three experiments in quadruplicate): increased cytotoxic effect as a function of concentration | Cytotoxic effect (cell viability relative to untreated cells) [3]: increased cytotoxic effect as a function of concentration
